Measured values taken from patent US7118747B2, “AT4 receptor ligands as angiogenic, anti-angiogenic, and anti-tumor agents” (Pacific Northwest Biotechnology Inc., priority 2003, dated 2006).

Tests used:
[1] = system: +SA-WAZ-2T mouse breast cancer cells; assay: Primary mammary tumor growth and vascularization with slow-release pellet; format: in vivo; conditions: mice
Protocol: To test this prediction mice were implanted with […]+SA-WAZ-2T mouse breast cancer cells (a highly aggressive and metastatic cell line) (Danielson et al., 1980) directly into the mammary gland in the presence or absence of a slow-release pellet containing the AT4 antagonist, NORLEUAL at various concentrations (FIG. 7; FIG. 14[color version]). Mouse mammary glands were injected with 5×10^5 cells. […] Tumors were removed and weighed at various time points. Data shown represents one of three experiments that yielded identical results. […] Arrows indicate large blood vessels in the control tumor. […] The highest dose examined inhibited growth more than 97%. Equally dramatic as the reduced size of the tumors was their lack of vascularization. […] Tumors were harvested after 5 weeks of drug application and stained for Factor VIII. […] The quantitative data shown in FIG. 8B indicates the number of visible blood vessels in an average high power field. Data are mean+/−SEM, n=6.

[2] = system: Human umbilical vein endothelial cells (HUVEC); assay: HUVEC growth, MTT assay; format: cell-based
Protocol: These initial observations were extended to human endothelial cells (FIG. 1A) where application of the high affinity agonist, Nle^1-Ang IV (Sardinia et al., 1994; Wright et al., 1999), produces a dose-dependent increase in growth. Human umbilical vein endothelial cells (HUVEC) were grown in EGM (Clonetics) and 10% calf serum for four days in the absence (control) or presence of 10^−8 M, 10^−10 M, or 10^−12 M Nle^1-Ang IV. Cell proliferation was estimated by monitoring mitochondrial activity with the redox-sensitive substrate 3-[4,5-Dimethylthiazol-2-yl]-2,5-diphenyltetrazolium bromide (MTT) (Carmicheal et al., 1987).
(§1) Most relevant for anti-angiogenic cancer treatment is the ability of AT4 antagonists to inhibit endothelial cell growth in culture. Attenuated growth has been observed with both CVECs and with HUVECs (FIG. 1B). After four days of treatment with 10^−10 M Nle^1, Leu^3-Ψ(CH2—NH2)^3-4-Ang IV (NORLEUAL), a potent AT4 receptor antagonist (Kramar et al., 2001), growth of CVECs was reduced to 25% of control (Mean±SEM; n=8; p<.001). […] Cell proliferation was again estimated using the MTT assay.

[3] = system: Human dermal fibroblasts; assay: Net deposition of extracellular matrix protein, anti-fibronectin stain; format: cell-based; conditions: 10^-12 M, 3 days
Protocol: (§2) Human dermal fibroblasts and C6 glioma cells (astrocyte tumor) were treated with 10^−12 M NORLEUAL for 3 days. Cells were stripped with 0.25 % Triton X-100 for 10 minutes and stained with either Coomassie blue (gliomas) or anti-fibronectin (fibroblasts). Stained dots remaining after treatment are nuclei. Although the mechanism responsible for the lose of ECM proteins has yet to be fully elucidated, a contributing factor could be AT4 receptor-dependent alterations in the expression of matrix metalloproteinases. Application of AT4 receptor ligands to rabbit cardiac fibroblasts initiated marked changes in the expression of various matrix metalloproteinases (MMPs) (FIG. 3). Conditioned media from cardiac fibroblasts treated with various AT4 receptor ligands for 12 hours was loaded and run on a 10% SDS-polyacrylamide gel containing the 1% gelatin, an MMP substrate. After renaturation and activation of MMPs, the gel was incubated at 37° C. for 24 hours to allow for the degradation of gelatin at sites within the gel where MMPs reside. These sites are seen as unstained lytic bands on a background of stained and undegraded gelatin. Lane one is control media from cells with no exposure to AT4 receptor ligands. Lanes 2-4 contained media from cells treated with Nle^1-Ang IV, a putative AT4 receptor agonist, at concentrations of 1 nM, 10 nM, and 100 nM respectively. […]

[4] = system: C6 glioma cells; assay: Net deposition of extracellular matrix protein, Coomassie blue stain; format: cell-based; conditions: 10^-12 M, 3 days
Protocol: as §2

[5] = system: Rat aortic rings; assay: Ex vivo rat aortic ring angiogenesis assay; conditions: 3 days in basal medium with varying concentrations; p<0.02 for 10^-6 M
Protocol: (§3) This prediction has been borne out in studies examining the anti-angiogenic activity of the AT4 receptor antagonist, NORLEUAL, using an ex vivo aortic ring model (FIG. 5) and an in vivo disc angiogenesis assay system in rats (FIG. 6). The data shown in FIG. 5 illustrate the dramatic ability of an AT4 receptor antagonist to inhibit neovascular growth. Rat aortic rings were incubated for 24 hours in a growth factor rich medium (EGM-2) followed by 3 days of incubation in a basal medium (control) or basal media with varying concentrations of NORLEUAL. The data shown in FIG. 5A compare an untreated control ring and a ring treated with 10^−6 M NORLEUAL. […] Disks (1 cm diameter) composed of surgical sponge sandwiched between impermeable membranes were implanted subcutaneously in the backs of rats. In the center of the disks was a pellet containing the test material. The disks were removed 10 days after implantation, paraffin sectioned, stained with Coomassie blue, and analyzed by quantitative image analysis methods to determine the vascularized area. […] Data from discs containing no drug (control), an AT4 receptor agonist (Cpnd 1), or an AT4 receptor antagonist (Cpnds 2-4). Cmpd 2 is NORLEUAL. Each disc contained 10 micrograms of drug. Data is presented as the percent of the total disc area that is vascularized (Mean±SEM; n=8).

[6] = system: murine breast cancer cells; assay: Lung metastasis after tail vein injection of breast cancer cells; format: in vivo, mice; conditions: Elvax pellets with 0.3 mg bilaterally
Text: In addition to inhibiting primary tumor growth, AT4 receptor antagonists are also effective at preventing the growth of lung metastases (as assessed by total lung weight and the presence of metastatic tumor nodules) in mice that have had breast cancer cells injected via the tail vein (FIG. 9). In these experiments the drug was applied using Elvax slow-release pellets that were implanted into the gluteus maximus muscle coincident with the injection of tumor cells into the tail vein. Mice were injected with 5×10^5 murine breast cancer cells and bilaterally implanted with Elvax pellets containing 0.3 mg of NORLEUAL. Lungs were harvested 7 weeks after tumor cell injection and weighed. […] In order to compare just the added lung weight due to tumor infiltration, tumor burden was calculated by subtracting the mean lung weight of wild type untreated controls from the weight of lungs from experimental groups. The mean lung weight of the untreated tumor controls was normalized to 100. Typically, the lung weights of cancer injected, non-treated mice were 50% greater than non-injected controls and treated mice. Spleen weight, another indication of tumor burden, was also normal in treated mice.

[7] = system: MDA-MB-231 human breast cancer cells; assay: MDA-MB-231 growth, MTT assay; format: cell-based; conditions: 10^-12 M, four days in culture
Text: Because of the marked effectiveness of AT4 receptor antagonists to inhibit the growth and metastasis of breast cancer in vivo, and the generally disappointing activity of anti-angiogenic molecules seen in clinical trials (Kerbel and Folkman, 2002), we decided to ascertain whether these drugs might have a direct effect on tumor cells as well as inhibiting angiogenesis. The growth of MDA-MB-23 1 cells, an aggressive estrogen-independent human cell line was inhibited by all concentrations that were examined (FIG. 10). Growth was assessed using the mitochondrial activity dye MTT after four days in culture. Growth was reduced to less than 25% of control by a concentration of NORLEUAL of 10^−12 M (Mean+/−SEM; n=6). […] The unusual reversed dose-response curve seen with the MDA-MB-231 cells may represent differential effects on multiple receptor subtypes with varied ligand affinities. […] The ability of AT4 receptor antagonists to inhibit both the angiogenic process as well as the proliferation of human cancer cells makes them unique among anti-cancer agents and provides a plausible explanation for their dramatic ability to inhibit tumor growth and metastasis.

[8] = system: HUVECs; assay: Net deposition of extracellular matrix protein, Coomassie blue stain; format: cell-based, human; conditions: 10^-12 M, 3 days
Text: HUVECs and the mouse breast cancer cell line, +SA-WAZ-2T was exposed to the AT4 receptor antagonist NORLEUAL at 10^−12 M for 3 days. Cells were then stripped with 0.25% Triton X-100 and stained with Coomassie blue to visualize total ECM protein. Without an ECM platform endothelial cells fail to migrate and are unable to stabilize new blood vessels.

[9] = system: bovine coronary venular endothelial cells (CVEC); assay: CVEC growth, MTT assay; format: cell-based; conditions: 10^-10 M, four days of treatment
Text: as §1

[10] = system: bovine coronary venular endothelial cells (CVEC); conditions: cultured CVEC (Hall et al., 1995); cited from earlier work
[11] = system: angiogenesis into subcutaneously implanted disc; assay: In vivo disc angiogenesis assay; conditions: rat, 10 micrograms of drug per disc, 10 days after implantation
Protocol: as §3

| Substance | inhibition of primary tumor growth ([1]; highest dose examined, Elvax pellet in mammary gland) | tumor vascularization, Factor VIII stained sections ([1]; tumors harvested after 5 weeks of drug application) | growth of HUVECs, largest decrease ([2]; 10^-6 M) [% control] | deposited ECM [3] | deposited ECM [4] | vessel growth in aortic rings [5] | lung metastases ([6]; mice, lungs harvested at 7 weeks) | spleen weight, indication of tumor burden ([6]; treated mice) | growth of MDA-MB-231 cells [7] | density of endothelial-associated ECM [8] | growth of CVECs [9] | maximum observed increase in endothelial cell proliferation ([2]; HUVEC, four days, 10^-8, 10^-10 or 10^-12 M) | rate of 3H-thymidine incorporation [10] | angiogenesis, percent of total disc area vascularized [11] |
| --- | --- | --- | --- | --- | --- | --- | --- | --- | --- | --- | --- | --- | --- | --- |
| Nle^1, Leu^3-Ψ(CH2—NH2)^3-4-Ang IV [NORLEUAL] | more than 97% | nearly avascular | 39 | near total loss of deposited ECM | near total loss of deposited ECM | inhibition of vessel growth | no gross or microscopic indication of metastases | normal | less than 25 % of control | dramatic reduction in the density of the endothelial-associated ECM | 25 % of control |  |  |  |
| Nle^1-Ang IV |  |  |  |  |  |  |  |  |  |  |  | 330 % of control levels | augment the rate of ^3H-thymidine incorporation | trend toward enhancing angiogenesis |
